Key:
Assay in all cases: radiometric filter-binding kinase assay, Kinase HotSpot
Details in all cases: compound 0.5 µM; ATP 10 µM
FRK (human) = FRK (human) (UniProt P42685)
AURKB (human) = AURKB (human) (UniProt Q96GD4)
AXL (human) = AXL (human) (UniProt P30530)
TSSK1B (human) = TSSK1B (human) (UniProt Q9BXA7)
TAOK1 (human) = TAOK1 (human) (UniProt Q7L7X3)
GSK3A (human) = GSK3A (human) (UniProt P49840)
SIK2 (human) = SIK2 (human) (UniProt Q9H0K1)
SRMS (human) = SRMS (human) (UniProt Q9H3Y6)
VRK1 (human) = VRK1 (human) (UniProt Q99986)
HIPK3 (human) = HIPK3 (human) (UniProt Q9H422)
CLK3 (human) = CLK3 (human) (UniProt P49761)
MAP3K7 TAB1 (human) = MAP3K7 TAB1 (human) (UniProt O43318+Q15750)
NTRK2 (human) = NTRK2 (human) (UniProt Q16620)
MAP3K5 (human) = MAP3K5 (human) (UniProt Q99683)
EPHB4 (human) = EPHB4 (human) (UniProt P54760)
MELK (human) = MELK (human) (UniProt Q14680)
SYK (human) = SYK (human) (UniProt P43405)
TBK1 (human) = TBK1 (human) (UniProt Q9UHD2)
NEK11 (human) = NEK11 (human) (UniProt Q8NG66)
PAK3 (human) = PAK3 (human) (UniProt O75914)
CAMK2G (human) = CAMK2G (human) (UniProt Q13555)
MAP3K2 (human) = MAP3K2 (human) (UniProt Q9Y2U5)
DAPK2 (human) = DAPK2 (human) (UniProt Q9UIK4)
IGF1R (human) = IGF1R (human) (UniProt P08069)
MAPKAPK3 (human) = MAPKAPK3 (human) (UniProt Q16644)
CSNK1G2 (human) = CSNK1G2 (human) (UniProt P78368)
RIPK2 (human) = RIPK2 (human) (UniProt O43353)
CHEK2 (human) = CHEK2 (human) (UniProt O96017)
SLK (human) = SLK (human) (UniProt Q9H2G2)
TGFBR2 (human) = TGFBR2 (human) (UniProt P37173)
IKBKB (human) = IKBKB (human) (UniProt O14920)
CAMK1G (human) = CAMK1G (human) (UniProt Q96NX5)
NUAK1 (human) = NUAK1 (human) (UniProt O60285)
[1] = molecular target: JAK1 JH1 catalytic (human) (UniProt P23458)
FLT3 (human) = FLT3 (human) (UniProt P36888)
CHEK1 (human) = CHEK1 (human) (UniProt O14757)
STK16 (human) = STK16 (human) (UniProt O75716)
PRKCZ (human) = PRKCZ (human) (UniProt Q05513)
SGK2 (human) = SGK2 (human) (UniProt Q9HBY8)
PNCK (human) = PNCK (human) (UniProt Q6P2M8)
MAPK10 (human) = MAPK10 (human) (UniProt P53779)
MAP4K2 (human) = MAP4K2 (human) (UniProt Q12851)
Chain of MAP4K2 (human) (Q12851 whole entry, looked up): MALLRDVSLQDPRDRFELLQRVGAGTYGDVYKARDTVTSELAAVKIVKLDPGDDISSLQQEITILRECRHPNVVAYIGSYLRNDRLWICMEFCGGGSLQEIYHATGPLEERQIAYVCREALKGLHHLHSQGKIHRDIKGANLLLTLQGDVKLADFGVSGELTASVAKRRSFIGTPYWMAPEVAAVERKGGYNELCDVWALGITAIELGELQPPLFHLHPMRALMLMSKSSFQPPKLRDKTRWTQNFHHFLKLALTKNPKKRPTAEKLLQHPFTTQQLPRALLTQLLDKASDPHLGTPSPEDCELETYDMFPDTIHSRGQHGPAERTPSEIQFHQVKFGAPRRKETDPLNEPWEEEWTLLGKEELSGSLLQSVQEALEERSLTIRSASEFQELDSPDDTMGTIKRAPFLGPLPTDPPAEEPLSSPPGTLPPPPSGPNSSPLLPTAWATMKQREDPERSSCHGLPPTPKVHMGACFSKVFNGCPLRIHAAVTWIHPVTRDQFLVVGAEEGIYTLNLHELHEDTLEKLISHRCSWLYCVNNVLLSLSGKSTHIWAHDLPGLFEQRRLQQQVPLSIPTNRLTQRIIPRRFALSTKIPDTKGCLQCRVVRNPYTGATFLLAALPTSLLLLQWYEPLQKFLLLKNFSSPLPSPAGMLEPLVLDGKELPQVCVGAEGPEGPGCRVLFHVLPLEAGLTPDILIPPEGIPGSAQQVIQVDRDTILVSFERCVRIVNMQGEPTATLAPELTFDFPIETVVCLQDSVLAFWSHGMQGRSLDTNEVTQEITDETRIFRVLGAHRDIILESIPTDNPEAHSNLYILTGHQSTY

Chain of VRK1 (human) (Q99986 whole entry, looked up): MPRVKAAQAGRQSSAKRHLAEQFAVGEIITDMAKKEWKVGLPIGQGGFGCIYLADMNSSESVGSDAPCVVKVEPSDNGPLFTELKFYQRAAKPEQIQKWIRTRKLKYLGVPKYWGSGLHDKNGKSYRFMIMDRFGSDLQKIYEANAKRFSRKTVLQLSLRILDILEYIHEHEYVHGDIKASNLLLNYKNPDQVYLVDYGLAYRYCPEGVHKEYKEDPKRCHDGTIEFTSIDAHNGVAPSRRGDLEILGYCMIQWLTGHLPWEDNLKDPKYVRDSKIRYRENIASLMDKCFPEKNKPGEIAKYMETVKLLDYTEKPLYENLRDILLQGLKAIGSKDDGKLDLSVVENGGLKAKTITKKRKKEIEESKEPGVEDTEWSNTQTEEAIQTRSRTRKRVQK
Chain of GSK3A (human) (P49840 whole entry, looked up): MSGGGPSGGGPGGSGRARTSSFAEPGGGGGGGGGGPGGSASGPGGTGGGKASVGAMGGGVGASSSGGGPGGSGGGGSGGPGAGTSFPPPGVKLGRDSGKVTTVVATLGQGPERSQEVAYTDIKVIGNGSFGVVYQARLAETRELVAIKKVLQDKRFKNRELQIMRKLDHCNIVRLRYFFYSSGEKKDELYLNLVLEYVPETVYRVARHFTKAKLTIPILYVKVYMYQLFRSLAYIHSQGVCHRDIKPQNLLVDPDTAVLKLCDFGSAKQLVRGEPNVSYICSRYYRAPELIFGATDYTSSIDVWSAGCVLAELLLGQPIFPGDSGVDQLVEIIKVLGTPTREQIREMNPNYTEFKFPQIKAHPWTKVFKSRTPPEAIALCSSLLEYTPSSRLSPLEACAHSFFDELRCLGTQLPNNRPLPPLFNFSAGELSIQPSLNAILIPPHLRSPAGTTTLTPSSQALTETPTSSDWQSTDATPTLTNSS
Chain of CSNK1G2 (human) (P78368 whole entry, looked up): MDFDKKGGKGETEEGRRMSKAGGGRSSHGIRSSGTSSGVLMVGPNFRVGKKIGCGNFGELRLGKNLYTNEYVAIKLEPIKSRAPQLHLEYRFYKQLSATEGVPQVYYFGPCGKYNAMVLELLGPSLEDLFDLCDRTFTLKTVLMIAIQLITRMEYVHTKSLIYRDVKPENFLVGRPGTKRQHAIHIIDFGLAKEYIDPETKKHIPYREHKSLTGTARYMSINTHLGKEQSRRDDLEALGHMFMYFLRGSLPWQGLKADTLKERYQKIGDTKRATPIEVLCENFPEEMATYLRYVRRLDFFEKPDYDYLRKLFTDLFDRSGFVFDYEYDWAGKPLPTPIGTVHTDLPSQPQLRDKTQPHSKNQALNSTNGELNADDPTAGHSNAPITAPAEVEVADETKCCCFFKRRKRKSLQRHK
Chain of RIPK2 (human) (O43353 whole entry, looked up): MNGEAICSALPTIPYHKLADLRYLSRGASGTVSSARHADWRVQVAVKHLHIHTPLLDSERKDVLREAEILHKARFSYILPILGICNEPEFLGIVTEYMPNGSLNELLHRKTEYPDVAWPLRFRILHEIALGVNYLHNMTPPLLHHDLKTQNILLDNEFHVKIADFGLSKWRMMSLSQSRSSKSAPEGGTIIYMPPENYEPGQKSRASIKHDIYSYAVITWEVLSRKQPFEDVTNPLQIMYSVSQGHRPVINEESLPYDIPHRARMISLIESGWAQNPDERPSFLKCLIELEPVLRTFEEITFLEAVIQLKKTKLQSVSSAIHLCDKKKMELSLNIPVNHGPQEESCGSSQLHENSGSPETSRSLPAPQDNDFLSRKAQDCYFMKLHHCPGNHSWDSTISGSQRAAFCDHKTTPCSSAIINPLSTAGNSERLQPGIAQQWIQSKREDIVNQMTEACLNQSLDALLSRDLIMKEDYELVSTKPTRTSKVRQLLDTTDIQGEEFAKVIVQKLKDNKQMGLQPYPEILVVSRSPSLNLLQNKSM
Chain of TSSK1B (human) (Q9BXA7 whole entry, looked up): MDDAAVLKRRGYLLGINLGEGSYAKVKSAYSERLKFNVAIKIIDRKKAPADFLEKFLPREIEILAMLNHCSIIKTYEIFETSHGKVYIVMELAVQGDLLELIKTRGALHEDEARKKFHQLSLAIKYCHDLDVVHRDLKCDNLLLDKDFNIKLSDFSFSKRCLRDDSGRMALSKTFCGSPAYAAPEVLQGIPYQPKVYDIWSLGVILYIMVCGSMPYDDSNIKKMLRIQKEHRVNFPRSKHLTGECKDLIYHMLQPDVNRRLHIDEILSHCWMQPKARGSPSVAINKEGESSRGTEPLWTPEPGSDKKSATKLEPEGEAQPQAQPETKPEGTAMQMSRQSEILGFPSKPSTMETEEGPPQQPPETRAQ
Chain of CAMK2G (human) (Q13555 whole entry, looked up): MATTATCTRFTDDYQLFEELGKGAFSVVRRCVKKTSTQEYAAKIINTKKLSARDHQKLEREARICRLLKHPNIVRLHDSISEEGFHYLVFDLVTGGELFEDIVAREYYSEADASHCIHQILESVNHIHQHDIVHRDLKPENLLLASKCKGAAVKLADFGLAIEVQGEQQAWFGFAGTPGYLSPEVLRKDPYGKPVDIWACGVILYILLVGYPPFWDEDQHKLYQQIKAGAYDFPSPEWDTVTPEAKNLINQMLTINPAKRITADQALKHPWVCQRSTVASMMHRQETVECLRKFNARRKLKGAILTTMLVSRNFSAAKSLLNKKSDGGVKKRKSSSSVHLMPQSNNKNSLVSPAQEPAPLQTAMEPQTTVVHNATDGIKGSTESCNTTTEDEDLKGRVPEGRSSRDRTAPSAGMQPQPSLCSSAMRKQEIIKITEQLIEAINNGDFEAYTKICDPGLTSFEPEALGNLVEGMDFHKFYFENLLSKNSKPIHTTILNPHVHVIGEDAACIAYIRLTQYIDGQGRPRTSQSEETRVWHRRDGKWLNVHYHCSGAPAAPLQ
Chain of FLT3 (human) (P36888 whole entry, looked up): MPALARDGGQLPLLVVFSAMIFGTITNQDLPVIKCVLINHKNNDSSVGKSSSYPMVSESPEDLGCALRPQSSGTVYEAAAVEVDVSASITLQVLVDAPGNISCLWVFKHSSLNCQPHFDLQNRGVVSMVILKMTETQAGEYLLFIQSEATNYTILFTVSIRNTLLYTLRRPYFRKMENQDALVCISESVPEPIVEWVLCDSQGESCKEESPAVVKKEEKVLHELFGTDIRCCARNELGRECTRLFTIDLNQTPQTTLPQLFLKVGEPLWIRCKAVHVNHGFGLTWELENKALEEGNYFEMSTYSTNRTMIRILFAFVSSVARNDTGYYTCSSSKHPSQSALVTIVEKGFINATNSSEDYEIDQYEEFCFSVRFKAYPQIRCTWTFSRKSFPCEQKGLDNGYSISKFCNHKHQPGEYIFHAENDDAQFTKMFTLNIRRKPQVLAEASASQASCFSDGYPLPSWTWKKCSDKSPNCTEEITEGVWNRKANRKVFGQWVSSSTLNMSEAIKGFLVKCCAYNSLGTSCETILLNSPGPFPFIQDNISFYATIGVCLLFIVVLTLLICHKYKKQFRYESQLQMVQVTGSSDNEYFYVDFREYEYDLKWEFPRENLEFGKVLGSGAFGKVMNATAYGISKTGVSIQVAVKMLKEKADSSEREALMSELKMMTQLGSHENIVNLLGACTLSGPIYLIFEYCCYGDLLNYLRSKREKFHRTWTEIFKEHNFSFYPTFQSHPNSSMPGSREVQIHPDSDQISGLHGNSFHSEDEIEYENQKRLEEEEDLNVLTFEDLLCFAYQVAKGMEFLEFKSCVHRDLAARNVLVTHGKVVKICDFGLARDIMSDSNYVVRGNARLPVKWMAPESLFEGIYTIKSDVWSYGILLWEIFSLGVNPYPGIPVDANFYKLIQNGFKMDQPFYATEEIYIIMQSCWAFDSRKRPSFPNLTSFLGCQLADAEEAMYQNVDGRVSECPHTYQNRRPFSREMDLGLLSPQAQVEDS
Chain of SGK2 (human) (Q9HBY8 whole entry, looked up): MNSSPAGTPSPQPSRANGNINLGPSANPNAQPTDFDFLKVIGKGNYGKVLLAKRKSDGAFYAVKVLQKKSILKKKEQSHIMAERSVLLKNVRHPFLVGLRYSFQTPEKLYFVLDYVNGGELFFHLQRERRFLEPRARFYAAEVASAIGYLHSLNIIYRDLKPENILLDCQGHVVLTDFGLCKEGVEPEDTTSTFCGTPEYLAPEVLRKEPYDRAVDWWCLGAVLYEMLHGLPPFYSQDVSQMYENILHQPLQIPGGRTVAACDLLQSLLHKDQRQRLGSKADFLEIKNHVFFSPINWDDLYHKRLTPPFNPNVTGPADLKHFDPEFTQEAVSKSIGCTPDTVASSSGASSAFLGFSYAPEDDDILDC

CC(=O)O/N=C1\C(=C2\C(=O)Nc3cc(Br)ccc32)Nc2ccccc21
residual activity (FRK (human)): 51.2% | residual activity (AURKB (human)): 81% | residual activity (AXL (human)): 88% | residual activity (TSSK1B (human)): 92.4% | residual activity (TAOK1 (human)): 126% | residual activity (GSK3A (human)): 6.49% | residual activity (SIK2 (human)): 54.6% | residual activity (SRMS (human)): 98% | residual activity (VRK1 (human)): 80.7% | residual activity (HIPK3 (human)): 76.7% | residual activity (CLK3 (human)): 75.1% | residual activity (MAP3K7 TAB1 (human)): 97.4% | residual activity (NTRK2 (human)): 38.4% | residual activity (MAP3K5 (human)): 95.8% | residual activity (EPHB4 (human)): 92.2% | residual activity (MELK (human)): 93.9% | residual activity (SYK (human)): 88.3% | residual activity (TBK1 (human)): 78.5% | residual activity (NEK11 (human)): 110% | residual activity (PAK3 (human)): 99.1% | residual activity (CAMK2G (human)): 70.6% | residual activity (MAP3K2 (human)): 93.1% | residual activity (DAPK2 (human)): 68.7% | residual activity (IGF1R (human)): 106% | residual activity (MAPKAPK3 (human)): 105% | residual activity (CSNK1G2 (human)): 89.7% | residual activity (RIPK2 (human)): 108% | residual activity (CHEK2 (human)): 75.8% | residual activity (SLK (human)): 80.2% | residual activity (TGFBR2 (human)): 132% | residual activity (IKBKB (human)): 92.4% | residual activity (CAMK1G (human)): 101% | residual activity (NUAK1 (human)): 49.4% | residual activity [1]: 104% | residual activity (FLT3 (human)): 21.6% | residual activity (CHEK1 (human)): 100% | residual activity (STK16 (human)): 76.5% | residual activity (PRKCZ (human)): 92.2% | residual activity (SGK2 (human)): 92.8% | residual activity (PNCK (human)): 96.3% | residual activity (MAPK10 (human)): 83% | residual activity (MAP4K2 (human)): 44%

CC(C)c1nn(-c2c(Cl)cccc2Cl)c2nc(Cc3ccc(OCCO)cc3)nc(O)c12
residual activity (FRK (human)): 89.6% | residual activity (AURKB (human)): 104% | residual activity (AXL (human)): 98% | residual activity (TSSK1B (human)): 104% | residual activity (TAOK1 (human)): 72.1% | residual activity (GSK3A (human)): 73.1% | residual activity (SIK2 (human)): 116% | residual activity (SRMS (human)): 91.5% | residual activity (VRK1 (human)): 103% | residual activity (HIPK3 (human)): 99% | residual activity (CLK3 (human)): 91.3% | residual activity (MAP3K7 TAB1 (human)): 98.5% | residual activity (NTRK2 (human)): 101% | residual activity (MAP3K5 (human)): 119% | residual activity (EPHB4 (human)): 90.7% | residual activity (MELK (human)): 84% | residual activity (SYK (human)): 98.6% | residual activity (TBK1 (human)): 97.7% | residual activity (NEK11 (human)): 109% | residual activity (PAK3 (human)): 94.8% | residual activity (CAMK2G (human)): 98.9% | residual activity (MAP3K2 (human)): 94.7% | residual activity (DAPK2 (human)): 88.3% | residual activity (IGF1R (human)): 24.8% | residual activity (MAPKAPK3 (human)): 89.2% | residual activity (CSNK1G2 (human)): 95.7% | residual activity (RIPK2 (human)): 89.3% | residual activity (CHEK2 (human)): 98.8% | residual activity (SLK (human)): 86.9% | residual activity (TGFBR2 (human)): 74.3% | residual activity (IKBKB (human)): 103% | residual activity (CAMK1G (human)): 100% | residual activity (NUAK1 (human)): 96.9% | residual activity [1]: 101% | residual activity (FLT3 (human)): 74.2% | residual activity (CHEK1 (human)): 96.2% | residual activity (STK16 (human)): 83.8% | residual activity (PRKCZ (human)): 96.9% | residual activity (SGK2 (human)): 101% | residual activity (PNCK (human)): 94.3% | residual activity (MAPK10 (human)): 109% | residual activity (MAP4K2 (human)): 106%

CN(C)C[C@H]1CCn2c(c(C3=C(c4cn(C)c5ccccc45)C(=O)NC3=O)c3ccccc32)C1
residual activity (FRK (human)): 103% | residual activity (AURKB (human)): 96.3% | residual activity (AXL (human)): 99.3% | residual activity (TSSK1B (human)): 104% | residual activity (TAOK1 (human)): 93% | residual activity (GSK3A (human)): 14.2% | residual activity (SIK2 (human)): 88.8% | residual activity (SRMS (human)): 109% | residual activity (VRK1 (human)): 105% | residual activity (HIPK3 (human)): 111% | residual activity (CLK3 (human)): 94.7% | residual activity (MAP3K7 TAB1 (human)): 95.3% | residual activity (NTRK2 (human)): 102% | residual activity (MAP3K5 (human)): 107% | residual activity (EPHB4 (human)): 90.9% | residual activity (MELK (human)): 96.4% | residual activity (SYK (human)): 99.6% | residual activity (TBK1 (human)): 91.4% | residual activity (NEK11 (human)): 74.1% | residual activity (PAK3 (human)): 102% | residual activity (CAMK2G (human)): 100% | residual activity (MAP3K2 (human)): 94.6% | residual activity (DAPK2 (human)): 90.4% | residual activity (IGF1R (human)): 101% | residual activity (MAPKAPK3 (human)): 97.9% | residual activity (CSNK1G2 (human)): 97% | residual activity (RIPK2 (human)): 94.4% | residual activity (CHEK2 (human)): 95% | residual activity (SLK (human)): 83.1% | residual activity (TGFBR2 (human)): 98.5% | residual activity (IKBKB (human)): 105% | residual activity (CAMK1G (human)): 95.8% | residual activity (NUAK1 (human)): 90.9% | residual activity [1]: 108% | residual activity (FLT3 (human)): 37.1% | residual activity (CHEK1 (human)): 69.8% | residual activity (STK16 (human)): 109% | residual activity (PRKCZ (human)): 31% | residual activity (SGK2 (human)): 71.7% | residual activity (PNCK (human)): 95.2% | residual activity (MAPK10 (human)): 101% | residual activity (MAP4K2 (human)): 99%
